The target in assay [1] is T1, wt human NUAK1, full length (Homo sapiens, UniProt O60285).
T1 construct: 8 nM wt human NUAK1, full length (ThermoFisher/USA); purchased ThermoFisher/USA
T1 sequence (O60285 1-661): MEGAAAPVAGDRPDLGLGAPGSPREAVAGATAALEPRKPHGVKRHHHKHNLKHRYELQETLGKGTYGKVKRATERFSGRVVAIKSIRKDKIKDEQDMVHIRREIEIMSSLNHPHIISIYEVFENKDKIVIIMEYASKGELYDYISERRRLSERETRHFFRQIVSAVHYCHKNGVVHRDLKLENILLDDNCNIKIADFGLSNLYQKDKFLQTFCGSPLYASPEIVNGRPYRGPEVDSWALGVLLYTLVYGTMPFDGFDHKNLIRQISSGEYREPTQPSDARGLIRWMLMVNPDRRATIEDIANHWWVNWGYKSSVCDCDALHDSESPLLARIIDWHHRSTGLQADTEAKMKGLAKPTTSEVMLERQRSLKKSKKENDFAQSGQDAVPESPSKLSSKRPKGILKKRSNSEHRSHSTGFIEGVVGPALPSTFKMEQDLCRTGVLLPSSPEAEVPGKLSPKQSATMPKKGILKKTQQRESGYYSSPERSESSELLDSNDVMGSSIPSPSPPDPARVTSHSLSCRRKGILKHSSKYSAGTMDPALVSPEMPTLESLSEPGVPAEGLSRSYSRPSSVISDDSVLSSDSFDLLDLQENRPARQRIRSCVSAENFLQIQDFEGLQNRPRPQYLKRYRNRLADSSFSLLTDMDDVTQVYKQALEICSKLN
Description: TR-FRET LanthaScreen Eu Kinase Binding Assay, NUAK1. Conditions: 5 nM Kinase Tracer 236; read-out: IC50, inhibitory activity toward NUAK1. Put shortly:
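TR-FRET tracer-displacement binding with 8 nM full-length wild-type human NUAK1, 2 nM Eu-anti-His antibody and 5 nM Kinase Tracer 236 in 1× Kinase Buffer A (final). Compound, kinase/antibody and tracer incubated 1 h at room temperature; emission ratios analysed per kit protocol.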
On the technique in general: In TR-FRET formats the signal depends on donor and acceptor labels being close together.

The target in assay [2] is T2, wt human TYK2, catalytic site (Homo sapiens, UniProt P29597).
T2 construct: 2 nM wt human TYK2, catalytic site (SignalChem/CAN); purchased SignalChem/CAN
T2 sequence (P29597 897-1176 limits assumed): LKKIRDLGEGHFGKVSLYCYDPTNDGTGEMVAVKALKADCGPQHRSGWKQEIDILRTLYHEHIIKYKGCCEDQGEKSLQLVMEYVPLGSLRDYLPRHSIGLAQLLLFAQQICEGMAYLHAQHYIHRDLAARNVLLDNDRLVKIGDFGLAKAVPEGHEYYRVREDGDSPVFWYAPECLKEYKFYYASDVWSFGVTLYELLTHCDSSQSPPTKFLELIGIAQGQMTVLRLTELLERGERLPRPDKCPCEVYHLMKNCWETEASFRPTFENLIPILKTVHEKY
Description: HTRF KinEASE assay, TYK2. Format: biochemical. To be noted: 1 μM ATP; read-out: IC50, inhibitory activity toward TYK2. Put shortly: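 2 nM wt human TYK2 catalytic domain with 1 μM biotinylated TK substrate and 1 μM ATP in 1× kinase buffer was incubated ≥30 min at room temperature. Antibody and streptavidin-XL665 were added, and HTRF emission ratios were read after 60 min.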

Broadly, the IC50 is the concentration that gives 50% inhibition.

Take `Fc1ccccc1-c1ccc2c(c1)N=C(c1c(F)cccc1Cl)Nc1c[nH]nc1-2` [Compound 234, 5-(2-chloro-6-fluorophenyl)-8-(2-fluorophenyl)-2,4-dihydrobenzo[d]pyrazolo[3,4-f][1,3]diazepine]: the results for the IC50 in assay [1] and in assay [2] were under 10 nM and 10 to 100 nM, respectively.

With `CC(C)Oc1cc2c(cc1F)-c1n[nH]cc1N=C(c1c(F)cccc1Cl)N2` [Compound 235, 5-(2-chloro-6-fluorophenyl)-9-fluoro-8-isopropoxy-2,6-dihydrobenzo[d]pyrazolo[3,4-f][1,3]diazepine], the IC50 in assay [1] and in assay [2] was 10 to 100 nM each time.

Take `Fc1ccccc1-c1ccc2c(c1)N=C(c1c(Cl)cccc1Cl)Nc1c[nH]nc1-2` [Compound 236, 5-(2,6-dichlorophenyl)-8-(2-fluorophenyl)-2,4-dihydrobenzo[d]pyrazolo[3,4-f][1,3]diazepine]: the IC50 was 100 to 1000 nM in assay [1] and under 10 nM in assay [2].

With `Fc1ccc(-c2ccc3c(c2)N=C(c2c(F)cccc2F)Nc2c[nH]nc2-3)cc1` [Compound 237, 5-(2,6-difluorophenyl)-8-(4-fluorophenyl)-2,4-dihydrobenzo[d]pyrazolo[3,4-f][1,3]diazepine], the IC50 is under 10 nM in assay [1] and 10 to 100 nM in assay [2].

With `Fc1ccc(-c2ccc3c(c2)N=C(c2c(F)cccc2Cl)Nc2c[nH]nc2-3)cc1` [Compound 238, 5-(2-chloro-6-fluorophenyl)-8-(4-fluorophenyl)-2,4-dihydrobenzo[d]pyrazolo[3,4-f][1,3]diazepine], the IC50 in assay [1] and in assay [2] was 10 to 100 nM in each case.

As for `CCC(C)Oc1cc2c(cc1F)-c1n[nH]cc1N=C(c1c(F)cccc1Cl)N2` (stereo not drawn) [Compound 239, 8-(sec-butoxy)-5-(2-chloro-6-fluorophenyl)-9-fluoro-2,6-dihydrobenzo[d]pyrazolo[3,4-f][1,3]diazepine], the IC50 lay within 100 to 1000 nM in assay [1] and 10 to 100 nM in assay [2].

With `Fc1cccc(-c2ccc3c(c2)N=C(c2c(F)cccc2F)Nc2c[nH]nc2-3)c1` [Compound 240, 5-(2,6-difluorophenyl)-8-(3-fluorophenyl)-2,4-dihydrobenzo[d]pyrazolo[3,4-f][1,3]diazepine], the IC50 in assay [1] and in assay [2] was 10 to 100 nM each time.

For the compound `Fc1cccc(-c2ccc3c(c2)N=C(c2c(F)cccc2Cl)Nc2c[nH]nc2-3)c1` [Compound 241, 5-(2-chloro-6-fluorophenyl)-8-(3-fluorophenyl)-2,4-dihydrobenzo[d]pyrazolo[3,4-f][1,3]diazepine], the IC50 in assay [1] is 10 to 100 nM; in assay [2] it was under 10 nM.

In the case of `Fc1ccc(-c2ccc3c(c2)N=C(c2c(Cl)cccc2Cl)Nc2c[nH]nc2-3)cc1` [Compound 242, 5-(2,6-dichlorophenyl)-8-(4-fluorophenyl)-2,4-dihydrobenzo[d]pyrazolo[3,4-f][1,3]diazepine], the IC50 in assay [1] was 10 to 100 nM; in assay [2] it was under 10 nM.

In the case of `Fc1cccc(-c2ccc3c(c2)N=C(c2c(Cl)cccc2Cl)Nc2c[nH]nc2-3)c1` [Compound 243, 5-(2,6-dichlorophenyl)-8-(3-fluorophenyl)-2,4-dihydrobenzo[d]pyrazolo[3,4-f][1,3]diazepine], the results for the IC50 in assay [1] and in assay [2] were 100 to 1000 nM and 10 to 100 nM, respectively.

`Fc1cc2c(cc1OC1CCCC1)N=C(c1c(F)cccc1Cl)Nc1c[nH]nc1-2` [Compound 245, 5-(2-chloro-6-fluorophenyl)-8-(cyclopentyloxy)-9-fluoro-2,4-dihydrobenzo[d]pyrazolo[3,4-f][1,3]diazepine]: the IC50 in assay [1] lay within 100 to 1000 nM; in assay [2], 10 to 100 nM.

For `CC[C@H](C)Oc1cc2c(cc1F)-c1n[nH]cc1N=C(c1c(F)cccc1Cl)N2` [Compound 247, (S)-8-(sec-butoxy)-5-(2-chloro-6-fluorophenyl)-9-fluoro-2,6-dihydrobenzo[d]pyrazolo[3,4-f][1,3]diazepine], the IC50 in assay [1] and in assay [2] was 10 to 100 nM throughout.

(Values after patent US20220380374A1, “1,4-DIHYDROBENZO[D]PYRAZOLO[3,4-F][1,3]DIAZEPINE DERIVATIVES AND RELATED COMPOUNDS AS LRRK2, NUAK1 AND/OR TYK2 KINASE MODULATORS FOR THE TREATMENT OF E.G. AUTOIMMUNE DISEASE” (Origenis GMBH, priority 2019, published 2022).)
